Data reported in US7232800B2, “Derivatives of magainin and methods of production thereof” (priority 2001, dated 2007).
Read-outs that look alike come from different tables or passages of the source. Where no end group is shown, it is not given here.

Experiments:
[1] = tested on: Escherichia coli JM103; type: cell-based
Experimental: The anti-microbial effect of the Magainin(Leu21, Ser23, Arg24) was conducted according to the following procedures, with the comparison of that of the naturally occurring Magainin.
The bacterial strain of Escherichia coli JM103 and staphylococcus aureus were employed.
The bacteria were cultivated at 37° centigrade, and diluted to 1×10^6 bacteria/ml. 20 mM of the sterilized Tris-HCl buffer (pH6.5) was added. Then the Magainin derivative and the naturally occurring Magainin II with various concentrations were added respectively, and incubated at 37° centigrade for different time, 50 μl of the cultures was taken and spread on an agar plate, and incubated at 37° centigrade overnight. The remaining bacteria colonies were accounted for, and the percent of the killed bacteria was calculated.
The ant-microbial effects of Magainin (Leu21, Ser23, Arg24) were tested with comparison with that of the naturally occurring Magainin II. […] The anti-microbial effect of Magainin (Leu21, Ser23, Arg24) on Staphylococcus aureus can be seen from table 4, and the result of time-kill study of Magainin (Leu21, Ser23, Arg24) was shown in FIG. 1.

[2] = tested on: mice of Kun-ming species; assay: Acute toxicity test; type: in vivo; settings: one week observation; for Livability: mice
Experimental: Six mice of Kun-ming species were divided into three groups randomly. Mice in the first group were intraperitoneally injected with 100 μg Magainin (Leu21, Ser23, Arg24) which is prepared by the method described in example 1, Mice in the second group were injected with 200 μg Magainin (Leu21, Ser23, Arg24), while those in the third group were injected with 1000 μg Magainin (Leu21, Ser23, Arg24). The toxicity of Magainin (Leu21, Ser23, Arg24) was determined by observing the influence of injection to the survival of the mice.

[3] = tested on: erythrocytes (blood derived from SD rat); assay: Hemolysis test; type: cell-based
Experimental: 3 ml of 0.9% sodium chloride solution was added into three tubes separately, followed by addition of 100 μl blood derived from SD rat (provided by Shanghai Laboratory Animal Center, Chinese Academic Sciences) respectively.
As a negative control, the naturally occurring Magainin peptide (obtained from Sigma) was dissolved in sterile water, and the Magainin peptide solution with a concentration of 1 mg/ml was prepared. 300 μl, 1.5 ml and 3 ml of such solution were added into three tubes respectively. After incubation at room temperature for 30 minutes, centrifugation was conducted at 3000 rpm, and supernates in three tubes was taken to determine the optical density at 590 nm with a spectrophotometer.
In the testing group, Hemolysis effect of the Magainin (Leu21, Ser23, Arg24) was examined. Magainin (Leu21, Ser23, Arg24) peptide was dissolved in sterile water to prepare the solution with a concentration of 1 mg/ml, 300 μl, 1.5 ml and 3 m of the solution were added into three tubes respectively, and the hemolysis test was conducted using the same method as applied to the negative control group.
In the positive control group, 0.1% of Triton X-100 (obtained from Sigma Aldrich) was employed aid the hemolysis test was performed according to the steps prescribed above.
In this test, erythrocyte will be precipitated after centrifigation and supernate appear red in the circumstance hemolysis has occurred.

GIGKFLHSAKKFGKAFVGEILNSR [Magainin (Leu21, Ser23, Arg24)]
Bacteria killed % ([1]; 10 μg/ml, 3 hr): 71.3% | Bacteria killed % ([1]; 10 μg/ml, 4 hr): 44.2% | Bacteria killed % ([1]; 20 μg/ml, 3 hr): 97.8% | Bacteria killed % ([1]; 20 μg/ml, 4 hr): 99.1% | Livability ([2]; 100 μg intraperitoneal injection): 100% | Livability ([2]; 200 μg intraperitoneal injection): 100% | Livability ([2]; 1000 μg intraperitoneal injection): 100% | survival of the mice (in words) ([2]; 100, 200 and 1000 μg intraperitoneal): all survived

GIGKFLHSAKKFGKAFVGEIMNS [Naturally occurring Magainin, Magainin II]
Bacteria killed % ([1]; 10 μg/ml, 3 hr): 75.4% | Bacteria killed % ([1]; 10 μg/ml, 4 hr): 84.9% | Bacteria killed % ([1]; 20 μg/ml, 3 hr): 97.5% | Bacteria killed % ([1]; 20 μg/ml, 4 hr): 99.2% | Hemolysis % ([3]; 100 μg/ml, 30 minutes room temperature): 0% | Hemolysis % ([3]; 500 μg/ml, 30 minutes room temperature): 0% | Hemolysis % ([3]; 1000 μg/ml, 30 minutes room temperature): 1.9%

Triton X-100 [Tritonx-100]
Hemolysis % ([3]; 0.1%, positive control): 100%
